# Experimental data published in patent US7910755B2, “Stem cell expansion and uses” (priority 2004, dated 2011).
# Legend:
# [1] = system: Macaca mulatta (Rhesus monkey) exposed to 6 Gy γ-radiation
# Source text: Treatment of whole body lethal radiation and characterization of mortality surrogate markers. Two groups of 10 Macaca mulatta (Rhesus monkey) were exposed to a 6 Gy dose of γ-radiation from a ^60Co source. This dose is an LD50/30 dose for this species. […] The age range was 1.75-5.0 years at the onset of treatment.
# Test article was an aqueous suspension in vehicle. The vehicle article consists of a solution of sodium chloride (0.9% w/v), carboxymethylcellulose (0.5% w/v), polysorbate 80 (2% v/v), benzalkonium chloride (0.02% v/v) and sodium phosphate (10 mM, pH 6.5). Immediately prior to drawing into a syringe, the test article formulation was briefly vortexed to uniformly distribute sedimented test article. Once drawn into a syringe, the test article was administered within 10 minutes. Just prior to injection, the syringe containing the test article was rotated end-over-end to uniformly disperse the compound.
# Whole body radiation. The animals were exposed to ionizing as follows. Dosimetry measurements using phantoms, the dose rate and duration of irradiation and the actual time of irradiation for each individual animal was recorded. Animals were fasted overnight prior to whole-body irradiation and fed upon return to the housing facility. Animals were transferred to the treatment facility in a transport vehicle with controlled environment. During transportation, each animal was individually housed in a stainless steel squeeze back cage. Temperature in the transport vehicle was automatically recorded every 5 minutes during transportation. Clinical signs were monitored immediately before and after transportation.
# The animals received a midline treatment dose of 600 cGy. The dose rate of the ^60Co gamma source was about 60 cGy per minute and the actual rate was recorded for each animal. To obtain a homogenous dose distribution, the radiation treatment was divided in two parts. First, the animal received half of the dose by anteroposterior irradiation. The second half of the dose was delivered by posteroanterior irradiation. Once the treatment was completed, animals were returned to the transport vehicle and transported to the housing facility. The radiation dose was calibrated using an acrylic phantom placed in the same experimental set up that was used for animal irradiation.
# The animals received the vehicle control once daily for five consecutive days by intramuscular injections. The first injection on day 1 was administered at 2-3 hours after irradiation. The dose volume was 0.15 mL/kg for all animals. The dose volume was evenly divided between two distinct sites (approximately 0.075 mL/kg per site). The actual volume delivered was calculated and adjusted based on each animal's body weight.
# During the pre-treatment period cage side observations of clinical signs were performed once daily. A detailed clinical examination was performed on all animals once prior to irradiation on day 1, day 9, weekly thereafter and at day 40 and 41. After radiation, the animals and clinical signs were observed twice a day during the protocol or as often as deemed necessary. Moribund animals were euthanized for humane reasons.
# [2] = system: lethally-irradiated female B6D2F1 mice; assay: Survival of lethally-irradiated mice (10 Gy total body irradiation, 137Cs); assay type: in vivo; conditions: groups of 12
# Protocol: Exposure of rodents to ionizing radiation exposure. The effect of selected F1Cs on survival of lethally-irradiated female B6D2F1 mice were compared to control animals treated with vehicle alone. The animals were exposed to 10 Gy of total body irradiation at 2.5 Gy/min using a ^137Cs source. […] For Group 4, test article was administered as a 50 μL volume, by intramuscular injection for three consecutive days. The formulation was a suspension containing 0.1% w/v carboxymethyl-cellulose, 0.9% w/v sodium chloride and 0.05% v/v phenol. The formulations were agitated to uniformly resuspend the F1C before syringing, and injected into animals within a few minutes of drawing into the syringe to prevent settling in the syringe.
# The groups of animals were treated as follows.
# [3] = system: female BALB/cByJ mice, DTH response to topical oxazolone challenge; assay: Modulation of delayed type hypersensitivity (oxazolone ear challenge); assay type: in vivo; conditions: difference right minus left ear, 24 hours following oxazolone challenge; vehicle alone 0.225 mm
# Protocol: Modulation of delayed type hypersensitivity. The capacity of F1Cs to modulate delayed type hypersensitivity (DTH) is determined in mice. Groups of five female BALB/cByJ mice (20-25 grams) are anesthetized and 100 μL of a 3% solution of oxazolone is applied on day 0 to the shaved abdomen and dried. Seven days later, on day 7, the mice are challenged by applying 5 μL of oxazolone topically to each side of the right ear. The F1C (at about 20-100 mg/mL) in vehicle is administered by subcutaneous injection (2 mg/day) one time on day 6, 24 hours before the oxazolone challenge. The vehicle as a non-aqueous suspension of the F1C in, e.g., 2% benzyl alcohol w/v, 0.1% Brij 96 w/v and equal volumes of PEG 300 and propylene glycol.
# Dexamethasone in saline (0.2 mg/mL) is administered daily for 9 days (day −1 to 7), first dose 24 hours before sensitization, last dose at challenge by subcutaneous injection (0.01 mg/dose, 50 μl/injection). On Day 8, 24 hours following the oxazolone challenge, both the right and left ear thicknesses are measured using a micrometer caliper and the differences are determined. The differential ear thickness is measured as an indicator of the DTH response to topical oxazolone challenge. The DTH response is expressed as the difference in the thickness (mm) between the right and the left ears for each animal.
# [4] = day 6, 0.6 mg s.c. daily for 3 days
# [5] = day 7, 0.6 mg s.c. daily for 3 days
# [6] = day 12, 0.6 mg s.c. daily for 3 days
# [7] = day 21, 0.6 mg s.c. daily for 3 days
smiles,measurement,setting,value
"C[C@]12CC[C@H]3[C@@H](CC=C4C[C@@H](O)CC[C@@]43C)[C@@H]1CC[C@@H]2O [3β,17β-dihydroxyandrost-5-ene]",number of animals having febrile severe neutropenia (>40.4° C. and absolute neutrophil count less than 500 cells/μL),"[1]; 15 mg/kg i.m. for 5 days, group of 10, at some time during the protocol",2
same,"days of severe thrombocytopenia (less than 20,000 platelets/μL) experienced collectively","[1]; 15 mg/kg i.m. for 5 days, group of 10, vehicle 51 days, p=0.009",32 days
same,median days of febrile severe neutropenia,"[1]; 15 mg/kg i.m. for 5 days, vehicle median 5 days, p=0.037",0 days
same,animals survived,"[1]; 15 mg/kg i.m. once per day for 5 days, 40 days",9 of 10
same,Mortality,"[1]; 15 mg/kg i.m. once per day for 5 days, control group 40%",10%
same,number of surviving animals,"[2]; day 6, 0.6 mg i.m. daily for 3 days",12
same,number of surviving animals,[2]; [4],12
same,number of surviving animals,"[2]; day 6, 3.0 mg s.c. daily for 3 days",12
same,number of surviving animals,"[2]; day 7, 0.6 mg i.m. daily for 3 days",12
same,number of surviving animals,[2]; [5],11
same,number of surviving animals,"[2]; day 7, 3.0 mg s.c. daily for 3 days",12
same,number of surviving animals,"[2]; day 12, 0.6 mg i.m. daily for 3 days",11
same,number of surviving animals,[2]; [6],10
same,number of surviving animals,"[2]; day 12, 3.0 mg s.c. daily for 3 days",9
same,number of surviving animals,"[2]; day 21, 0.6 mg i.m. daily for 3 days",9
same,number of surviving animals,[2]; [7],7
same,number of surviving animals,"[2]; day 21, 3.0 mg s.c. daily for 3 days",7
"C[C@]12CC[C@H]3[C@@H](CC=C4C[C@@H](O)CC[C@@]43C)[C@@H]1CC[C@@H]2N [3β-hydroxy-17,7-aminoandrost-5-ene]",number of surviving animals,[2]; [4],12
same,number of surviving animals,[2]; [5],12
same,number of surviving animals,[2]; [6],12
same,number of surviving animals,[2]; [7],11
O=P1(N(CCCl)CCCl)NCCCO1 (centres unmarked) [cyclophosphamide],differential ear thickness (DTH response),[3],0.092 mm
C[C@@H]1C[C@H]2[C@@H]3CCC4=CC(=O)C=C[C@]4(C)[C@@]3(F)[C@@H](O)C[C@]2(C)[C@@]1(O)C(=O)CO [dexamethasone],differential ear thickness (DTH response),[3],0.144 mm
